Test results published in US20030226169A1, “DNA sequences encoding antifungal proteins” (priority 1995, published 2003).
In brackets after ≈: the same amount, converted by molar mass. Like-named read-outs stand apart in the source and are kept apart here. Residues, ends and D or L forms follow the SMILES beside them.

Tests used:
[1] = tested on: F culmorum; assay: Antifungal activity of combinations of Rs-AFP and 15-mer peptides; assay type: cell-based, Fusarium culmorum; conditions: 100 x MIC of Rs-AFP2 / MIC of Rs-AFP2/peptide combination; 15-mer peptide added at 20 μg/ml; SMF medium; BSA-coated plates; Rs-AFP2 alone = 100
Procedure: The 15-mer peptides were tested for their ability to affect the antifungal activity of the Rs-AFP2 protein (SEQ ID NO: 35). Each peptide was added at a subinhibitory concentration (20 μg/ml ) to a twofold dilution series of Rs-AFP2 (SEQ ID NO: 35) ranging from 20 μg/ml down to 0.15 μg/ml. In the control series only water was added.
The target fungus was F culmorum and the growth medium was SMF. In order to exclude the effect of differential binding of the peptides to the microplate wells, the plates were coated with bovine serum albumin. […] The relative specific activity is defined as one hundred times the MIC of Rs-AFP2 divided by the MIC of the Rs-AFP2/peptide combination. Data are based on duplicate tests.

[2] = tested on: Fusarium culmorum (IMI 180420); assay: Antifungal growth inhibition microplate assay (photospectrometry); assay type: cell-based; conditions: ½ PDB; for IC50 / F CULMORUM IC / F CULMORUM IC50: the source numbers peptides by N-terminal amino acid; for F CULMORUM IC: Table 6 / FIG. 8: Rs-AFP1-based 9-mer split peptides; for F CULMORUM IC50: Table 7 / FIG. 8: Rs-AFP1-based 12-mer split peptides
Procedure: (§1) The following fungal strains were used: Alternaria brassicicola (MUCL 20297), Ascophyta pisi (MUCL 30164), Botrytis cinerea (MUCL 30158), Fusarium culmorum (IMI 180420) and Verticillium dahliae (MUCL 19210).
(§2) Fungi were grown on six cereal agar plates at room temperature and under white fluorescent light except for F culmorum and V dahliae which were grown in the dark. The duration of the spore harvest varied between 10 and 25 days depending on the strain. Spores were collected as follows. Five to ten ml of sterile milli-Q water was poured into each dish and the surface of the agar was rubbed with a sterile spatula to obtain a suspension containing mycelium and spores. This suspension was filtered through a sterile glasswool-plugged funnel and the filtrate containing the spores was collected in a sterile polypropylene centrifuge tube. The A brassicicola spores were suspended in sterile 0.1 Tween 20 (Merk, 822184) due to their hydrophobic nature. The spore suspensions were then washed twice by centrifugation at 2,400×g for 15 minutes and resuspended in a small volume of steril milli-Q water. The spore density was determined in a counting chamber and then adjusted to 4×10^7 spores per ml. Aliquots of the spore suspension were transferred to sterile microtubes and an equal volume of sterile 50% glycerol (Merck, 4091) was added to each tube so that a final spore suspension of 2×10^7 spores per ml in 25% glycerol was obtained. After careful mixing of the stock, the spore suspension was transferred in 100 μl aliquots to sterile microtubes and stored at −80° C.
(§3) Antifungal activity was measured by photospectrometry as described by Broekaert et al, (1990, FEMS Microbiol Lett, 69:55-60). Tests were performed by adding 20 μl of test solution and 80 μl of a fungal spore suspension (2×10^4 spores/ml) per well in a sterile flat-bottom 96-well microtiterplate. The spore suspension was prepared by diluting the stock spore suspension ([…] in 25% glycerol) 1:1000 in half-strength potato dextrose broth. A positive growth control consisting of eight wells containing 20 μl of sterile milli-Q water and 80 μl of the fungal spore suspension was included in each test. The microtiterplates were incubated (with the lid on) in an aerated place at room temperature and under conditions of darkness for all test organisms.
(§4) After 30 minutes of incubation (when the spores are settled on the well bottom) the optical density was measured in a microplate reader (Bio Rad 3550-UV) at 595 nm. Incubation of the microtiterplates continued until the optical density of the control microculture was between 0.250 and 0.500, which took approximately 72 hours (96 hours for V dahliae). Percentage of growth inhibition (% GI) was estimated as 100 times the ratio of the corrected absorbance of the control microculture minus the corrected absorbance of the test microculture over the corrected absorbance of the control microculture at 595 nm. The corrected absorbance values equal the absorbance at 595 nm of the culture measured after 72 or 96 hours minus the absorbance at 595 nm measured after 30 minutes.
(§5) % GI=[(Acontrol−Atest/Acontrol]×100
(§6) where Acontrol=(A72/96h−A30min)control
(§7) The IC50 value is defined as the concentration that gives a 50% growth inhibition after 72 or 96 hours of incubation. The minimum inhibitory concentration (MIC) corresponds to the minimum concentration that gives 100% growth inhibition after 72 or 96 hours incubation.

[3] = tested on: Ascophyta pisi (MUCL 30164); assay type: cell-based; conditions: ½ PDB; for A PISI IC: the source numbers peptides by N-terminal amino acid
Procedure: as §1, §2, §3, §4, §5, §6, §7

[4] = Table 3 / FIG. 6: Rs-AFP2-based 9-mer split peptides
[5] = Table 3: Rs-AFP2-based 9-mer split peptides, duplicate
[6] = Table 6: Rs-AFP1-based 9-mer split peptides
[7] = Table 4 / FIG. 6: Rs-AFP2-based 12-mer split peptides
[8] = Table 4: Rs-AFP2-based 12-mer split peptides, triplicate
[9] = Table 7: Rs-AFP1-based 12-mer split peptides

| Compound | Relative Specific Antifungal Activity [1] | IC50 [2, 4] [µg/mL] | MIC [2, 5] [µg/mL] | F CULMORUM IC [2] [µg/mL] | F CULMORUM MIC [2, 6] [µg/mL] | A PISI MIC [3, 6] [µg/mL] | A PISI IC [3, 6] [µg/mL] | IC50 [2, 7] [µg/mL] | MIC [2, 8] [µg/mL] | F CULMORUM IC50 [2] [µg/mL] | F CULMORUM MIC [2, 9] [µg/mL] | A PISI IC50 [3, 9] [µg/mL] | A PISI MIC [3, 9] [µg/mL] |
| --- | --- | --- | --- | --- | --- | --- | --- | --- | --- | --- | --- | --- | --- |
| CC(=O)N[C@@H](CCC(N)=O)C(=O)N[C@@H](CCCCN)C(=O)N[C@@H](CC(C)C)C(=O)N[C@@H](CS)C(=O)N[C@@H](CCC(N)=O)C(=O)N[C@@H](CCCNC(=N)N)C(=O)N1CCC[C@H]1C(=O)N[C@@H](CO)C(=O)NCC(=O)N[C@H](C(=O)N[C@@H](Cc1c[nH]c2ccccc12)C(=O)N[C@@H](CO)C(=O)NCC(=O)N[C@H](C(=O)N[C@@H](CS)C(N)=O)C(C)C)[C@@H](C)O [Peptide 1 (Rs-AFP2 15-mer)] (Ac-QKLCQRPSGTWSGVC-NH2; N-terminus and C-terminus assumed) | 310 |  |  |  |  |  |  |  |  |  |  |  |  |
| CC[C@H](C)[C@H](NC(=O)[C@H](CS)NC(=O)[C@H](CCCCN)NC(=O)[C@H](Cc1c[nH]cn1)NC(=O)[C@H](C)NC(C)=O)C(=O)N[C@@H](CS)C(=O)N[C@@H](Cc1ccc(O)cc1)C(=O)N[C@@H](Cc1ccccc1)C(=O)N1CCC[C@H]1C(N)=O [compound 88] (Ac-AHKCICYFP-NH2) |  | 35 (≈ 31.2 µM) | 50 (≈ 44.5 µM) | 21 | 37.5 | 25 | 18 |  |  |  |  |  |  |
| CC[C@H](C)[C@H](NC(=O)[C@H](CS)NC(=O)[C@H](CCCCN)NC(=O)[C@H](Cc1c[nH]cn1)NC(C)=O)C(=O)N[C@@H](CS)C(=O)N[C@@H](Cc1ccc(O)cc1)C(=O)N[C@@H](Cc1ccccc1)C(=O)N1CCC[C@H]1C(=O)N[C@@H](CS)C(N)=O [compound 89] (Ac-HKCICYFPC-NH2) |  |  |  | 233 |  |  | 70 |  |  |  |  |  |  |
| CC(=O)NCC(=O)N[C@@H](CO)C(=O)N[C@@H](CS)C(=O)N[C@@H](CC(N)=O)C(=O)N[C@@H](Cc1ccc(O)cc1)C(=O)N[C@H](C(=O)N[C@@H](Cc1ccccc1)C(=O)N1CCC[C@H]1C(=O)N[C@@H](C)C(=O)N[C@@H](Cc1c[nH]cn1)C(=O)N[C@@H](CCCCN)C(=O)N[C@@H](CS)C(N)=O)C(C)C [compound 123] (Ac-GSCNYVFPAHKC-NH2) |  |  |  |  |  |  |  | 280 (≈ 205 µM) | 300 (≈ 220 µM) | 266 | 300 | 349 | >400 |
| CC[C@H](C)[C@H](NC(=O)[C@H](CS)NC(=O)[C@H](CCCCN)NC(=O)[C@H](Cc1c[nH]cn1)NC(=O)[C@H](C)NC(=O)[C@@H]1CCCN1C(=O)[C@H](Cc1ccccc1)NC(=O)[C@@H](NC(=O)[C@H](Cc1ccc(O)cc1)NC(=O)[C@H](CC(N)=O)NC(=O)[C@H](CS)NC(=O)[C@H](CO)NC(C)=O)C(C)C)C(N)=O [compound 124] (Ac-SCNYVFPAHKCI-NH2) |  |  |  |  |  |  |  | 135 (≈ 94.9 µM) | 200 (≈ 141 µM) | 213 | 300 | 318 | >400 |
| CC[C@H](C)[C@H](NC(=O)[C@H](CS)NC(=O)[C@H](CCCCN)NC(=O)[C@H](Cc1c[nH]cn1)NC(=O)[C@H](C)NC(=O)[C@@H]1CCCN1C(=O)[C@H](Cc1ccccc1)NC(=O)[C@@H](NC(=O)[C@H](Cc1ccc(O)cc1)NC(=O)[C@H](CC(N)=O)NC(C)=O)C(C)C)C(=O)N[C@@H](CS)C(=O)N[C@@H](Cc1ccc(O)cc1)C(N)=O [compound 126] (Ac-NYVFPAHKCICY-NH2) |  |  |  |  |  |  |  | 201 (≈ 134 µM) | 300 (≈ 200 µM) | 189 | 300 | 298 | 400 |
| CC[C@H](C)[C@H](NC(=O)[C@H](CS)NC(=O)[C@H](CCCCN)NC(=O)[C@H](Cc1c[nH]cn1)NC(=O)[C@H](C)NC(=O)[C@@H]1CCCN1C(=O)[C@H](Cc1ccccc1)NC(=O)[C@@H](NC(=O)[C@H](Cc1ccc(O)cc1)NC(C)=O)C(C)C)C(=O)N[C@@H](CS)C(=O)N[C@@H](Cc1ccc(O)cc1)C(=O)N[C@@H](Cc1ccccc1)C(N)=O [compound 127] (Ac-YVFPAHKCICYF-NH2) |  |  |  |  |  |  |  |  |  | 354 | >400 | 302 | 400 |
| CC[C@H](C)[C@H](NC(=O)[C@H](CS)NC(=O)[C@H](CCCCN)NC(=O)[C@H](Cc1c[nH]cn1)NC(=O)[C@H](C)NC(=O)[C@@H]1CCCN1C(=O)[C@H](Cc1ccccc1)NC(=O)[C@@H](NC(C)=O)C(C)C)C(=O)N[C@@H](CS)C(=O)N[C@@H](Cc1ccc(O)cc1)C(=O)N[C@@H](Cc1ccccc1)C(=O)N1CCC[C@H]1C(N)=O [compound 128] (Ac-VFPAHKCICYFP-NH2) |  |  |  |  |  |  |  | 344 (≈ 235 µM) | >400 | 320 | >400 | 181 | 400 |
| Ac-ARHGSCNYV-NH2 [compound 77] |  | 189 | 300 | 193 | 300 | 200 | 143 |  |  |  |  |  |  |
| Ac-CNYVFPAHK-NH2 [compound 82] |  | 77 | 100 | 113 | 150 | 400 | 265 |  |  |  |  |  |  |
| Ac-EKARHGSCNYVF-NH2 [compound 118] |  |  |  |  |  |  |  | 154 | 200 | 63 | 100 | 91 | 200 |
| Ac-HGSCNYVFPAHK-NH2 [compound 122] |  |  |  |  |  |  |  | 30 | 50 | 35 | 50 | 74 | 100 |
| Ac-KARHGSCNY-NH2 [compound 76] |  | 162 | 300 | 169 | 250 | >400 | 342 |  |  |  |  |  |  |
| Ac-KARHGSCNYVFP-NH2 [compound 119] |  |  |  |  |  |  |  | 37 | 50 | 33 | 50 | 66 | 100 |
| Ac-LEKARHGSCNYV-NH2 [compound 117] |  |  |  |  |  |  |  | 327 | >400 | 347 | 400 | 293 | 400 |
| Ac-RHGSCNYVF-NH2 [compound 78] |  | 284 | 400 | 69 | 100 | 100 | 70 |  |  |  |  |  |  |
